Data reported in ChEMBL document CHEMBL1201862, “PubChem BioAssay data set” (2004).
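Each compound was tested at five concentrations against cells in 96-well plates for 48 hours. GI50: concentration for 50% inhibition of growth.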 Active and inactive are the calls of the source. Cut-off read from the data, not from the text of the source: active = GI50 up to about 1.1 µM and inactive = higher.

What was measured:
Assay in all cases: DTP human tumour cell line panel, 48 h
786-0 = tested on: 786-0
HCC 2998 = tested on: HCC 2998
SK-OV-3 = tested on: SK-OV-3
IGROV-1 = tested on: IGROV-1
OVCAR-4 = tested on: OVCAR-4
HL-60 = tested on: HL-60
UACC-257 = tested on: UACC-257
SN12C = tested on: SN12C
Malme-3M = tested on: Malme-3M
HT-29 = tested on: HT-29
A549 = tested on: A549
UO-31 = tested on: UO-31
OVCAR-5 = tested on: OVCAR-5
NCI-H226 = tested on: NCI-H226
COLO 205 = tested on: COLO 205
SF-295 = tested on: SF-295
U-251 = tested on: U-251
SK-MEL-5 = tested on: SK-MEL-5
MCF7 = tested on: MCF7

Which results are given for `CCN1CCC(O)(c2ccc(Cl)c(Cl)c2)C(C(=O)c2ccc(Cl)c(Cl)c2)C1` (stereo unspecified)?
GI50 (786-0): 15.4 µM (inactive); GI50 (HCC 2998): 19.9 µM (inactive); GI50 (SK-OV-3): 18.2 µM (inactive); GI50 (IGROV-1): 20.6 µM (inactive); GI50 (OVCAR-4): 18.3 µM (inactive); GI50 (HL-60): 15.2 µM (inactive); GI50 (UACC-257): 18.2 µM (inactive); GI50 (SN12C): 17.8 µM (inactive); GI50 (Malme-3M): 18.2 µM (inactive); GI50 (HT-29): 18.2 µM (inactive); GI50 (A549): 19.4 µM (inactive); GI50 (UO-31): 17.3 µM (inactive); GI50 (OVCAR-5): 19.2 µM (inactive); GI50 (NCI-H226): 21.4 µM (inactive); GI50 (COLO 205): 16.9 µM (inactive); GI50 (SF-295): 17.6 µM (inactive); GI50 (U-251): 18 µM (inactive); GI50 (SK-MEL-5): 16.9 µM (inactive)

How did the GI50 (786-0) turn out when `COC1C(OC(=O)c2ccc(C)[nH]2)C(O)C(Oc2ccc3c(O)c(NC(=O)c4c[nH]c(C(=O)Nc5c(O)c6ccc(OC7OC(C)(C)C(OC)C(OC(=O)c8ccc(C)[nH]8)C7O)c(C)c6oc5=O)c4C)c(=O)oc3c2C)OC1(C)C` (stereo unspecified) was run?
Its GI50 is 2.1 µM (inactive).

What about the GI50 (HCC 2998) of the same molecule?
The GI50 was 2.59 µM (inactive).

And the GI50 (SK-OV-3)?
The GI50 was 2.15 µM (inactive).

And the GI50 (IGROV-1)?
The GI50 was 1.3 µM (inactive).

What about the GI50 (OVCAR-4) of the same molecule?
The GI50 was 2.05 µM (inactive).

And the GI50 (HL-60)?
The GI50 was 1.83 µM (inactive).

And the GI50 (UACC-257)?
Its GI50 is 3.95 µM (inactive).

What about the GI50 (SN12C) of the same molecule?
Its GI50 is 1.54 µM (inactive).

What about the GI50 (Malme-3M) of the same molecule?
The GI50 was 2.09 µM (inactive).

And the GI50 (HT-29)?
The GI50 was 3.9 µM (inactive).

And the GI50 (A549)?
The GI50 was 3.39 µM (inactive).

And the GI50 (UO-31)?
The GI50 was 1.45 µM (inactive).

And the GI50 (OVCAR-5)?
The GI50 was 2.84 µM (inactive).

What about the GI50 (NCI-H226) of the same molecule?
Its GI50 is 1.96 µM (inactive).

What about the GI50 (COLO 205) of the same molecule?
The GI50 was 1.87 µM (inactive).

What about the GI50 (SF-295) of the same molecule?
Its GI50 is 4.01 µM (inactive).

And the GI50 (U-251)?
Its GI50 is 0.597 µM (active).

And the GI50 (SK-MEL-5)?
Its GI50 is 2.61 µM (inactive).

With `CCOC(=O)/C(=C/c1cccc(C#N)c1)N(CC)CC` as the molecule, how does the GI50 (786-0) read?
The GI50 was > 100 µM (inactive).

And the GI50 (HCC 2998)?
The GI50 was > 100 µM (inactive).

What about the GI50 (SK-OV-3) of the same molecule?
The GI50 was > 100 µM (inactive).

And the GI50 (IGROV-1)?
Its GI50 is > 100 µM (inactive).

And the GI50 (OVCAR-4)?
Its GI50 is > 100 µM (inactive).

What about the GI50 (HL-60) of the same molecule?
The GI50 was > 100 µM (inactive).

And the GI50 (UACC-257)?
The GI50 was > 100 µM (inactive).

What about the GI50 (SN12C) of the same molecule?
Its GI50 is > 100 µM (inactive).

What about the GI50 (Malme-3M) of the same molecule?
Its GI50 is > 100 µM (inactive).

What about the GI50 (HT-29) of the same molecule?
Its GI50 is > 100 µM (inactive).

What about the GI50 (A549) of the same molecule?
The GI50 was > 100 µM (inactive).

What about the GI50 (UO-31) of the same molecule?
The GI50 was > 100 µM (inactive).

What about the GI50 (OVCAR-5) of the same molecule?
Its GI50 is > 100 µM (inactive).

And the GI50 (NCI-H226)?
The GI50 was > 100 µM (inactive).

And the GI50 (COLO 205)?
Its GI50 is > 100 µM (inactive).

What about the GI50 (SF-295) of the same molecule?
The GI50 was > 100 µM (inactive).

And the GI50 (U-251)?
Its GI50 is > 100 µM (inactive).

And the GI50 (SK-MEL-5)?
Its GI50 is > 100 µM (inactive).

With `CC1=Nc2ccccc2S(=O)(=O)N1` as the molecule, how does the GI50 (786-0) read?
The GI50 was > 100 µM (inactive).

What about the GI50 (HCC 2998) of the same molecule?
The GI50 was > 100 µM (inactive).

And the GI50 (SK-OV-3)?
Its GI50 is > 100 µM (inactive).

And the GI50 (IGROV-1)?
Its GI50 is > 100 µM (inactive).

And the GI50 (OVCAR-4)?
The GI50 was > 100 µM (inactive).

And the GI50 (HL-60)?
Its GI50 is > 100 µM (inactive).

And the GI50 (UACC-257)?
Its GI50 is > 100 µM (inactive).

What about the GI50 (SN12C) of the same molecule?
The GI50 was > 100 µM (inactive).

And the GI50 (Malme-3M)?
The GI50 was > 100 µM (inactive).

And the GI50 (HT-29)?
Its GI50 is > 100 µM (inactive).

What about the GI50 (A549) of the same molecule?
Its GI50 is > 100 µM (inactive).

And the GI50 (UO-31)?
Its GI50 is > 100 µM (inactive).

What about the GI50 (OVCAR-5) of the same molecule?
Its GI50 is > 100 µM (inactive).

What about the GI50 (NCI-H226) of the same molecule?
The GI50 was > 100 µM (inactive).

What about the GI50 (COLO 205) of the same molecule?
The GI50 was > 100 µM (inactive).

What about the GI50 (SF-295) of the same molecule?
Its GI50 is > 100 µM (inactive).

What about the GI50 (U-251) of the same molecule?
The GI50 was > 100 µM (inactive).

And the GI50 (SK-MEL-5)?
The GI50 was > 100 µM (inactive).

With `CC12CCC(=O)N1c1cccnc1N2` (stereo unspecified) as the molecule, how does the GI50 (786-0) read?
The GI50 was > 100 µM (inactive).

What about the GI50 (HCC 2998) of the same molecule?
Its GI50 is > 100 µM (inactive).

And the GI50 (SK-OV-3)?
The GI50 was > 100 µM (inactive).

And the GI50 (IGROV-1)?
The GI50 was > 100 µM (inactive).

And the GI50 (OVCAR-4)?
The GI50 was > 100 µM (inactive).

What about the GI50 (HL-60) of the same molecule?
The GI50 was > 100 µM (inactive).

What about the GI50 (UACC-257) of the same molecule?
The GI50 was > 100 µM (inactive).

What about the GI50 (SN12C) of the same molecule?
The GI50 was > 100 µM (inactive).

And the GI50 (Malme-3M)?
The GI50 was > 100 µM (inactive).

And the GI50 (HT-29)?
Its GI50 is > 100 µM (inactive).

What about the GI50 (A549) of the same molecule?
Its GI50 is > 100 µM (inactive).

And the GI50 (UO-31)?
The GI50 was > 100 µM (inactive).

What about the GI50 (OVCAR-5) of the same molecule?
Its GI50 is > 100 µM (inactive).

And the GI50 (NCI-H226)?
The GI50 was > 100 µM (inactive).

What about the GI50 (COLO 205) of the same molecule?
The GI50 was > 100 µM (inactive).

What about the GI50 (SF-295) of the same molecule?
The GI50 was > 100 µM (inactive).

What about the GI50 (U-251) of the same molecule?
Its GI50 is > 100 µM (inactive).

And the GI50 (SK-MEL-5)?
The GI50 was > 100 µM (inactive).

What does the source list for `C/C(=C\c1ccc(Cl)c(Cl)c1)[N+](=O)[O-]`?
GI50 (786-0): 0.579 µM (active); GI50 (HCC 2998): 4.36 µM (inactive); GI50 (IGROV-1): 2.16 µM (inactive); GI50 (OVCAR-4): 2.51 µM (inactive); GI50 (HL-60): 1.52 µM (inactive); GI50 (MCF7): 0.433 µM (active); GI50 (UACC-257): 1.3 µM (inactive); GI50 (SN12C): 2.05 µM (inactive); GI50 (Malme-3M): 2.08 µM (inactive); GI50 (HT-29): 3.78 µM (inactive); GI50 (A549): 1.89 µM (inactive); GI50 (UO-31): 1.32 µM (inactive); GI50 (OVCAR-5): 1.96 µM (inactive); GI50 (NCI-H226): 2.46 µM (inactive); GI50 (SF-295): 3.68 µM (inactive); GI50 (U-251): 1.71 µM (inactive); GI50 (SK-MEL-5): 2.04 µM (inactive)

`COc1ccc(/C(C)=N/NC(=O)c2ccncc2)c(OC)c1` was tested. Which GI50 (786-0) did it give?
The GI50 was > 10 µM (inactive).

And the GI50 (HCC 2998)?
The GI50 was > 10 µM (inactive).

What about the GI50 (SK-OV-3) of the same molecule?
Its GI50 is > 10 µM (inactive).

What about the GI50 (IGROV-1) of the same molecule?
Its GI50 is > 10 µM (inactive).

What about the GI50 (OVCAR-4) of the same molecule?
Its GI50 is > 10 µM (inactive).

And the GI50 (HL-60)?
Its GI50 is > 10 µM (inactive).

What about the GI50 (MCF7) of the same molecule?
The GI50 was > 10 µM (inactive).

And the GI50 (UACC-257)?
The GI50 was > 10 µM (inactive).

And the GI50 (SN12C)?
Its GI50 is > 10 µM (inactive).

What about the GI50 (Malme-3M) of the same molecule?
The GI50 was > 10 µM (inactive).

And the GI50 (A549)?
Its GI50 is > 10 µM (inactive).

And the GI50 (UO-31)?
Its GI50 is > 10 µM (inactive).

And the GI50 (NCI-H226)?
The GI50 was > 10 µM (inactive).

What about the GI50 (COLO 205) of the same molecule?
The GI50 was > 10 µM (inactive).

What about the GI50 (U-251) of the same molecule?
The GI50 was > 10 µM (inactive).

What about the GI50 (SK-MEL-5) of the same molecule?
Its GI50 is > 10 µM (inactive).

What does the source list for `C[C@]12CC(C#N)C(=O)C(O)=C1CC[C@@H]1C2CC[C@@]2(C)C1CC[C@@H]2O` (stereo partly specified)?
GI50 (786-0): 22.9 µM (inactive); GI50 (HCC 2998): > 100 µM (inactive); GI50 (SK-OV-3): 33.2 µM (inactive); GI50 (IGROV-1): 12.2 µM (inactive); GI50 (OVCAR-4): 48.5 µM (inactive); GI50 (HL-60): 13.8 µM (inactive); GI50 (UACC-257): 71.1 µM (inactive); GI50 (SN12C): 60 µM (inactive); GI50 (Malme-3M): 31.1 µM (inactive); GI50 (HT-29): > 100 µM (inactive); GI50 (A549): 47.5 µM (inactive); GI50 (UO-31): 10.1 µM (inactive); GI50 (OVCAR-5): 27.3 µM (inactive); GI50 (NCI-H226): 27.6 µM (inactive); GI50 (COLO 205): 48.5 µM (inactive); GI50 (SF-295): > 100 µM (inactive); GI50 (U-251): > 100 µM (inactive); GI50 (SK-MEL-5): 26.3 µM (inactive)
